Like-named read-outs stand apart in the source and are kept apart here.
What was measured:
HCV NS5B = HCV NS5B (Hepatitis C virus genotype 1b (isolate Con1) (HCV), UniProt Q9WMX2); assay: HCV NS5B RdRp enzyme assay; type: biochemical, HCV genotype 1b (Con1)
Procedure: Each untagged protein was expressed with an 18 amino acid C-terminal truncation to enhance the solubility. The E. coli competent cell line BL21(DE3) was used for expression of the protein. […] The cultures were cooled to 20° C. and induced with 1 mM IPTG. Fresh ampicillin was added to a final concentration of 50 μg/mL and the cells were grown overnight at 20° C.
The lysis buffer consisted of 20 mM Tris-HCl, pH 7.4, 500 mM NaCl, 0.5% triton X-100, 1 mM DTT, 1 mM EDTA, 20% glycerol, 0.5 mg/mL lysozyme, 10 mM MgCl2, 15 ug/mL deoxyribonuclease I, and Complete TM protease inhibitor tablets (Roche). After addition of the lysis buffer, frozen cell pellets were resuspended using a tissue homogenizer. To reduce the viscosity of the sample, aliquots of the lysate were sonicated on ice using a microtip attached to a Branson sonicator. The sonicated lysate was centrifuged at 100,000×g for 30 minutes at 4° C. and filtered through a 0.2 μm filter unit (Corning).
The protein was purified using two sequential chromatography steps: Heparin sepharose CL-6B and polyU sepharose 4B. The chromatography buffers were identical to the lysis buffer but contained no lysozyme, deoxyribonuclease I, MgCl2 or protease inhibitor and the NaCl concentration of the buffer was adjusted according to the requirements for charging the protein onto the column. Each column was eluted with a NaCl gradient which varied in length from 5-50 column volumes depending on the column type. […] The enzyme was aliquoted and stored at −80° C.
An on-bead solid phase homogeneous assay was used in a 384-well format to assess NS5B inhibitors (WangY-K, Rigat K, Roberts S, and Gao M (2006) Anal Biochem, 359: 106-111). The biotinylated oligo dT12 primer was captured on streptavidin-coupled imaging beads (GE, RPNQ0261) by mixing primer and beads in 1× buffer and incubating at room temperature for three hours. Unbound primer was removed after centrifugation. The primer-bound beads were resuspended in 3× reaction mix (20 mM Hepes buffer, pH 7.5, dT primer coupled beads, poly A template, ^3H-UTP, and RNAse inhibitor (Promega N2515)). Compounds were serially diluted 1:3 in DMSO and aliquoted into assay plates. […]
Reactions were allowed to proceed for 24 hours at 30° C. and terminated by the addition of 50 mM EDTA (5 μL). After incubating for at least 15 minutes, plates were read on an Amersham LEADseeker multimodality imaging system.
IC50 values for compounds were determined using ten different [I]. IC50 values were calculated from the inhibition using the four-parameter logistic formula y=A+((B−A)/(1+((C/x)^D))), where A and B denote minimal and maximal % inhibition, respectively, C is the IC50, D is hill slope and x represents compound concentration.

[1] = system: genotype 1b (Con-1) HCV replicon; assay: HCV replicon luciferase assay; type: cell-based; details: Hepatitis C virus, Huh-7, 72 h, 1b replicon, Huh-7 cells, Renilla luciferase, 3 days incubation
Procedure: The cell lines used to evaluate compounds consist of a human hepatocyte derived cell line (Huh-7) that constitutively expresses a genotype 1b (Con-1) HCV replicon or a genotype 1b (Con-1) HCV replicon with an asparagine replacing the cysteine at amino acid 316, or a genotype 2a (JFH-1) replicon, containing a Renilla luciferase reporter gene. These cells were maintained in Dulbecco's modified Eagle medium (DMEM) containing 10% FBS, 100 U/mL penicillin/streptomycin and 1.0 mg/mL G418.
After 3 days incubation at 37° C., cells were analyzed for Renilla Luciferase activity using the EnduRen substrate (Promega cat #E6485) according to the manufacturer's directions. Briefly, the EnduRen substrate was diluted in DMEM and then added to the plates to a final concentration of 7.5 μM. The plates were incubated for at least 1 h at 37° C. then read on a Viewlux Imager (PerkinElmer) using a luminescence program.

[2] = extended dosing, combination with interferon and ribavirin; cited from earlier work
HCV = details: cited from earlier work
[3] = 1b enzyme, 7 nM NS5B, 24 hours at 30° C., read-out: IC50

Chain of HCV NS5B (Q9WMX2 2420-2992): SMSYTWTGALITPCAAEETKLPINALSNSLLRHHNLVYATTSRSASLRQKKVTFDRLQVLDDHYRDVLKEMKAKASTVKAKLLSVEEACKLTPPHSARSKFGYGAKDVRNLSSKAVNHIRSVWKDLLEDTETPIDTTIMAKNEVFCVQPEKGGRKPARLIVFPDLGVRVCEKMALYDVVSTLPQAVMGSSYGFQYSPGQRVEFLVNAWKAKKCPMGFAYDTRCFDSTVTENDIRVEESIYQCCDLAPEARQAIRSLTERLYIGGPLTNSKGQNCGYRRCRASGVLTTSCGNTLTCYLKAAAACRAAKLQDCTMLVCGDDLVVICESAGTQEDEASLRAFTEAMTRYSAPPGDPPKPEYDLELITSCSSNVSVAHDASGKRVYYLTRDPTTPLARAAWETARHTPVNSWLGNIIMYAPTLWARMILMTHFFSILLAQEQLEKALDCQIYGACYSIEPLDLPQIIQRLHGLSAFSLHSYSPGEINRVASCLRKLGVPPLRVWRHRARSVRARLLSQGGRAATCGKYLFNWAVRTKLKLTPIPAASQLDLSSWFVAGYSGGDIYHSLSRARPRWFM

Molecule | IC50 (HCV NS5B; [3]) [nM] | EC50 [1] [nM] | also measured
CNC(=O)c1c(-c2ccc(F)cc2)oc2nc(CCC(F)(F)F)c(-c3cccc(C(=O)NC4(c5ncon5)CCC4)c3)cc12 [Example 4, 5-(3-((1-(1,2,4-oxadiazol-3-yl)cyclobutyl)carbamoyl)phenyl)-2-(4-fluorophenyl)-N-methyl-6-(3,3,3-trifluoropropyl)furo[2,3-b]pyridine-3-carboxamide] | 2.05 | 2.41 | 
CNC(=O)c1c(-c2ccc(F)cc2)oc2nc(CCC(F)(F)F)c(-c3cccc(C(=O)NC(C)(C)c4nc(C)no4)c3)cc12 [Example 9, 2-(4-fluorophenyl)-N-methyl-5-(3-((2-(3-methyl-1,2,4-oxadiazol-5-yl)propan-2-yl)carbamoyl)phenyl)-6-(3,3,3-trifluoropropyl)furo[2,3-b]pyridine-3-carboxamide] | 2.87 | 2.11 | 
CNC(=O)c1c(-c2ccc(F)cc2)oc2nc(NCC(F)(F)F)c(-c3ccc(F)c(C(=O)NC(C)(C)c4ncon4)c3)cc12 [Example 13, 5-(3-((2-(1,2,4-oxadiazol-3-yl)propan-2-yl)carbamoyl)-4-fluorophenyl)-2-(4-fluorophenyl)-N-methyl-6-((2,2,2-trifluoroethyl)amino)furo[2,3-b]pyridine-3-carboxamide] | 3.42 | 5.76 | 
[2H]C([2H])([2H])Oc1ncc(-c2cc3c(C(=O)NC)c(-c4ccc(F)cc4)oc3nc2CCC(F)(F)F)cc1C(=O)NC(c1ncon1)(C([2H])([2H])[2H])C([2H])([2H])[2H] [Example 17, 5-[2-(4-fluorophenyl)-3-(methylcarbamoyl)-6-(3,3,3-trifluoropropyl)furo[2,3-b]pyridin-5-yl]-2-(^2H3)methoxy-N-[2-(1,2,4-oxadiazol-3-yl)(^2H6)propan-2-yl]pyridine-3-carboxamide] |  |  | IC50 (HCV NS5B): 2.4 nM
CNC(=O)c1c(-c2ccc(F)cc2)oc2cc(N(CCO)S(C)(=O)=O)c(C3CC3)cc12 [HCV-796] |  |  | hepatic toxicity [2]: hepatic toxicity observed during extended dosing of the combination regimens; HCV RNA levels in patients (HCV; single agent, transient decrease then rebound during dosing): reduce HCV RNA levels in patients
alpha-interferon and ribavirin |  |  | sustained efficacy (HCV; combination therapy): 40 % of patients
